Data reported in patent US20260324651A1 (priority 2022, published 2026).

How the values were obtained:
F. culmorum = test: Inhibitory effect of pure lipopeptides and their combinations on fungal growth
Method: (§1) To further explore the potential synergistic effect between bioactive metabolites assays with single families of bioactive compounds and their combinations were performed.
(§2) Increasing concentrations of pure stocks of surfactin (Sigma S3523, FIG. 4A), fengycin (Sigma SMB00292, FIG. 4B) or iturin (Sigma 11774, FIG. 4C) were added to 48-well microtiter plates containing PDB medium and a fixed fungal spore concentration. Inhibitory effect over two different phytopathogenic species was assayed, F. culmorum (FIG. 4, left) and B. cinerea (FIG. 4, right). Plates were incubated at 25° C. without shaking for 60 hours (in dark conditions) and fungal growth was measured by spectrophotometry at 600 nm.
(§3) Fungal growth inhibition of increasing concentrations of single compounds was compared with compound combinations, where a fixed concentration of one of them was assayed in combination with increasing concentrations of the second metabolite.

B. cinerea = test: as above
Method: as §1, §2, §3

[1] = in the presence of surfactin, vs fengycin alone
[2] = single lipopeptide, 25° C., 60 hours
[3] = with surfactin at 100-200 μg/ml

Row | Substance | increase of bioactivity of fengycin in the presence of surfactin (F. culmorum; [1]) | inhibition of fungal growth (F. culmorum; [2]) | effective concentration of fengycin required to inhibit growth (F. culmorum; [3]) | increase of bioactivity of fengycin in the presence of surfactin (B. cinerea; [1]) | inhibition of fungal growth (B. cinerea; [2]) | effective concentration of fengycin required to inhibit growth (B. cinerea; [3]) | effective concentration for strong growth inhibition (F. culmorum; [2]) | effective concentration for strong growth inhibition (B. cinerea; [2]) | inhibitory effect on growth at high concentrations (F. culmorum; 200-400 μg/ml surfactin alone) | inhibitory effect on growth at high concentrations (B. cinerea; 200-400 μg/ml surfactin alone)
1 | fengycin | up to 6 fold | potent inhibition of fungal growth | 12.5 µg/mL | up to 6 fold | potent inhibition of fungal growth | 12.5 µg/mL |  |  |  | 
2 | iturin |  | potent inhibition of fungal growth |  |  | potent inhibition of fungal growth |  | 9 µg/mL | 9 µg/mL |  | 
3 | surfactin |  | only compromised pathogen growth very weakly |  |  | only compromised pathogen growth very weakly |  |  |  | very modest and barely decreased the growth | very modest and barely decreased the growth
